Results published in US20250235499A1, “ANTI-OVARIAN CANCER PHARMACEUTICAL COMPOSITION AND ACTION TARGET THEREOF” (Zhejiang Chinese Medical University, priority 2024, published 2025).

Experiments:
Hey ovarian cancer cell = assay: Tumor bearing nude mouse model (tumor volume, tumor inhibition rate, body weight); format: in vivo, BALB/c nude mice; conditions: intraperitoneal, 15 days; DDP 3 mg/kg, CA 80 mg/kg, BDMC 5 mg/kg; compared to the Control group, P<0.01
Protocol: Newly housed BALB/c nude mice were placed in an SPF grade feeding room laminar flow rack for adaptive feeding for one week, and the experimental animal status was adjusted. A Hey ovarian cancer cell was cultivated to the logarithmic growth stage, and the original culture medium was discarded. The Hey ovarian cancer cell was washed with PBS buffer, added with 0.1% trypsin digestion for digestion, added with the corresponding culture medium to terminate digestion, centrifuged at 1000 rpm for 3 minutes, and added with PBS buffer to prepare a cell suspension. The cell was counted using a hemocytometer, and the cell concentration was quantified to 5×10^7 cells/mL. After grasping and fixing the nude mouse with the left hand, and the skin at a needle inserting site on the right forelimb axilla of the nude mouse was disinfected with a 75% alcohol cotton ball. A disposable 1 mL syringe was used to inject approximately 100 μL of cell suspension subcutaneously into the posterior axilla of the right forelimb in an oblique stabbing inserting needle mode, so that each nude mouse was injected with approximately 5×10^6 cells. After vaccination, the needle inserting site was gently pressed with a cotton ball to prevent the cell suspension from leaking from a needle hole. The growth status of tumors at the vaccination site of nude mice was observed daily. After about one week, if the tumors at the vaccination site were compacted and appeared light red in color, it could be considered as successful tumor growth. At this time, the nude mice were randomly divided into 5 groups, a Control group intraperitoneally injected with physiological saline for 1 day each time; a DDP group intraperitoneally injected with cisplatin, 3 mg/kg, 3 d/time; a CA group intraperitoneally injected with CA, 80 mg/kg, 1 d/time; a BDMC group intraperitoneally injected with BDMC, 5 mg/kg, 1 d/time; a CA+BDMC group intraperitoneally injected with CA 80 mg/kg+BDMC 5 mg/kg, 1 d/time, 8 animals per group. A tumor length (L) and a […] were measured with a vernier caliper every 3 days to calculate a tumor volume. After 15 days of administration, nude mice were euthanized by dislocation of cervical vertebra, and tumor tissue was dissected. The tumor weight was weighed to calculate the tumor inhibition rate. The tumor tissue was stored in two batches at −80° C. and fixed with 4% paraformaldehyde.

[1] = test system: SKOV3 ovarian cancer cells; assay: Cell migration and invasion (small chamber) with MCM2 knockdown or overexpression; format: cell-based, human
Protocol: (§1) The night before collecting cells, small chambers were placed in a 24 well plate. A matrix gel was taken out from the −20° C. refrigerator and placed to melt naturally on ice. The thawed matrix gel was mixed with serum-free medium in a ratio of 1:5, and 100 μL of the mixture was added to each chamber. After preparation, the 24 well plate was placed in the incubator overnight. The next day, SKOV3 and Hey ovarian cancer cells in logarithmic growth phase were knocked down with MCM2 (Control group, sh-NC group, sh-MCM2 group) and overexpressed with MCM2 (Control group, OE-NC group, OE-MCM2 group). The original culture medium was discarded, washed with PBS buffer, and digested with 0.1% trypsin. A corresponding serum-free culture medium was added to prepare a cell suspension. Cells were counted using a hemocytometer and the cell concentration was quantified at 5×10^4 cells/mL. The 24 well plate was taken out and placed in a small chamber for a migration experiment and the 24 well plate with the matrix gel for an invasion experiment. 200 μL of a corresponding cell suspension was added to an upper chamber, and 700 μL of a corresponding culture medium containing 10% FBS was added to a lower chamber. The 24 well plate was further placed in an incubator for cultivation. The 24 well plate for the migration experiment was cultured for 24 hours before being taken out, while the 24 well plate for the invasion experiment was cultured for 48 hours before being taken out. The culture medium in the small chamber was poured out. The inside of the small chamber was cleaned with a cotton swab, and washed twice with the PBS buffer. The small chamber was fixed in 4% paraformaldehyde for 30 minutes, and stained in 1% crystal violet solution for 10 minutes after fixation. The small chamber was taken out, washed twice with the PBS buffer, dried with an absorbent paper, observed and counted under a microscope. The impact of CA, BDMC, and combined administration intervention on cell migration after knocking down MCM2 in SKOV3 and Hey ovarian cancer cells was shown in FIGS. 19A-19D. The scale in FIGS. 19A-19D was 10 μM; A represented the migration of SKOV3 cells; B represented the migration of Hey cells; C represented the invasion of SKOV3 cells; and D represented the invasion of Hey cells. Compared with the sh-NC group, ##P<0.01; compared with the sh-NC+CA+BDMC group, &&P<0.01; and ** P<0.01. The impact of CA, BDMC, and combined administration intervention on cell migration after overexpression of MCM2 on the SKOV3 and Hey ovarian cancer cells was shown in FIGS. 20A-20D. The scale in FIGS. 20A-20D was 10 μM, A represented the migration of SKOV3 cells; B represented the migration of Hey cells; C represented the invasion of SKOV3 cells; and D represented the invasion of Hey cells. Compared with the OE-NC group, ##P<0.01; compared with the OE-NC+CA+BDMC group, &&P<0.01; and compared with the OE-MCM2+CA+BDMC group, ΔP<0.05, ΔΔP<0.01; and ** P<0.01.

Hey ovarian cancer cells = assay: as above; format: cell-based, human
Protocol: as §1

[2] = test system: E-cadherin, N-cadherin, Vimentin in SKOV3 cells; assay: Expression of EMT related proteins in cells; format: cell-based, human
[3] = SKOV3 OE-MCM2 cells (MCM2 overexpression), vs OE-MCM2 group
[4] = SKOV3 OE-NC cells (empty vector), vs OE-NC group
[5] = SKOV3 sh-MCM2 cells (MCM2 knockdown), vs sh-MCM2 group
[6] = SKOV3 sh-NC cells (empty vector), vs sh-NC group
[7] = Hey OE-MCM2 cells (MCM2 overexpression), vs OE-MCM2 group
[8] = Hey OE-NC cells (empty vector), vs OE-NC group
[9] = Hey sh-MCM2 cells (MCM2 knockdown), vs sh-MCM2 group
[10] = Hey sh-NC cells (empty vector), vs sh-NC group

COc1ccc(-c2coc3cc(O)ccc3c2=O)cc1O [CA, calycosin]
significantly reduced: tumor volume size (Hey ovarian cancer cell) | number of the invading cells [1, 4] | number of the migrating cells [1, 4] | number of the invading cells [1, 6] | number of the migrating cells [1, 6] | number of the invading cells (Hey ovarian cancer cells; [8]) | number of the migrating cells (Hey ovarian cancer cells; [8]) | number of the invading cells (Hey ovarian cancer cells; [10]) | number of the migrating cells (Hey ovarian cancer cells; [10])
no significant change: number of the invading cells [1, 3] | number of the migrating cells [1, 3] | number of the invading cells [1, 5] | number of the migrating cells [1, 5] | number of the invading cells (Hey ovarian cancer cells; [7]) | number of the migrating cells (Hey ovarian cancer cells; [7]) | number of the invading cells (Hey ovarian cancer cells; [9]) | number of the migrating cells (Hey ovarian cancer cells; [9]) | expression of E-cadherin [2, 3] | expression of N-cadherin [2, 3] | expression of Vimentin [2, 3] | expression of E-cadherin [2, 5] | expression of N-cadherin [2, 5] | expression of Vimentin [2, 5]
significantly decreased: expression of N-cadherin [2, 4] | expression of Vimentin [2, 4] | expression of N-cadherin [2, 6] | expression of Vimentin [2, 6]
significantly increased: tumor inhibition rate (Hey ovarian cancer cell) | expression of E-cadherin [2, 4] | expression of E-cadherin [2, 6]
